Experiments:
PC3 tumor = assay: Cerenkov luminescence imaging of PC3 tumor-bearing mice pretargeted with TCO-PEG4-AR then [90Y]Y-DOTA-Tz; format: in vivo; conditions: 1 nmol TCO-PEG4-AR, radiocomplex after 4 h
Description: The Cerenkov Luminescence Imaging of the prostate cancer PC3 tumor-bearing mice was carried out at different time points (15 min, 1 and 2 h) after intravenous injection of [^90Y]Y-DOTA-Tz. […] Thereafter, the CLI imaging of the PC3 tumor-bearing mice was carried out at different time points (15 min, 1 h). The images were obtained using PhotonIMAGER™ (BioSpace Lab).

[1] = Stability of the [90Y]Y-DOTA-Tz preparation (HPLC, radiolysis); format: physicochemical
Description: The radiolabelling with ^90Y was performed following the same procedure previously optimized for ^111In, using a buffer of 0.1 M ammonium acetate at pH 7 and heating the mixture at 80°C for 15 min. The DOTA-Tz chelator was added to a final concentration of 400–500 μM to yield [^90Y]Y-DOTA-Tz with specific activities up to 3.3 MBq/nmol and radiochemical yields above 90% (Supplementary Figure 4A). The radiocomplex [^90Y]Y-DOTA-Tz was synthesized with ~130 MBq of [^90Y]YCl3 and obtained in very high specific activity, after separation from the non-labeled DOTA-Tz chelator. The radiocomplex was recovered into phosphate buffer at pH 8 to neutralize the residual TFA from the HPLC mobile phase before its use in future biological studies. […] In order to stabilize the [^90Y]Y-DOTA-Tz preparation, a suitable ratio between the volume of phosphate buffer solution at pH 8 to neutralize the TFA from the HPLC purification and ascorbic acid as a radiolytic stabilizer had to be optimized. In initial experiments, the use of ascorbic acid as a buffer in the radiolabelling procedure led to the degradation of the tetrazine moiety. Similar effect was seen when the ascorbic acid solution (50 mg/mL) was added to the solution after labeling. […]

PC3 xenografts = assay: Ex vivo biodistribution of [90Y]Y-DOTA-Tz in mice bearing PC3 xenografts; conditions: PC3 xenograft mice
Excerpt: Currently, we are investigating the application of click chemistry using biomolecules that target prostate cancer. Therefore, since a non-specific tumor uptake might interfere with the specificity of the pre-targeting approach, we have performed in vivo studies of [^90Y]Y-DOTA-Tz in mice bearing PC3 xenografts to assess the possible non-specific uptake of the clickable radiocomplex in the tumor and in the tumor microenvironment. […] This type of optical imaging offers a high spatial resolution, and despite a limited penetration depth allows to image ^90Y, which is not easily feasible using PET or SPECT imaging ([32]). […] At the selected time points the majority of the compound was retrieved in the urine, with 88 and 96% of the I.D. excreted 1 and 2 h post-injection, respectively. page 9: from whole animal body. Blood samples were taken by cardiac puncture at sacrifice. […] The animals were kept under […] volume of approximate 390 ± 190 mm3. […] […] carried out on groups of 8 mice (n = 4). […] The animals were weighed and dissected.

[2] = 1 h p.i., listed as [^90Y]Y-DOTA-Tz
[3] = 2 h p.i., listed as [^90Y]Y-DOTA-Tz

in vitro stability of the preparation ([1]; 3 μL ascorbic acid (50 mg/mL) and 147 μL phosphate buffer pH 8, up to 20 h after the radiolabelling): excellent in vitro stability | stability of the preparation ([1]; recovered into phosphate buffer pH 8, no stabilizer, after 2 h at room temperature): high degradation | Biodistribution: Blood (PC3 xenografts; 1 h p.i.): 1.59 ± 0.62 % I.D./g | Biodistribution: Bone (PC3 xenografts; 1 h p.i.): 1.04 ± 0.25 % I.D./g | Biodistribution: Intestine (PC3 xenografts; 1 h p.i.): 0.41 ± 0.2 % I.D./g | Biodistribution: Kidneys (PC3 xenografts; 1 h p.i.): 3.65 ± 0.49 % I.D./g | Biodistribution: Liver (PC3 xenografts; 1 h p.i.): 0.76 ± 0.07 % I.D./g | Biodistribution: Lung (PC3 xenografts; 1 h p.i.): 1.24 ± 0.32 % I.D./g | Biodistribution: Muscle (PC3 xenografts; 1 h p.i.): 0.5 ± 0.2 % I.D./g | Biodistribution: Pancreas (PC3 xenografts; 1 h p.i.): 0.7 ± 0.32 % I.D./g | Biodistribution: Salivary Gland (PC3 xenografts; 1 h p.i.): 0.68 ± 0.12 % I.D./g | Biodistribution: Spleen (PC3 xenografts; 1 h p.i.): 1 ± 0.27 % I.D./g | Biodistribution: Stomach (PC3 xenografts; 1 h p.i.): 0.65 ± 0.33 % I.D./g | Biodistribution: Tumour (PC3 xenografts; 1 h p.i.): 1.0 ± 0.4 % I.D./g | Biodistribution: Blood (PC3 xenografts; [2]): 1.59 % I.D./g | Biodistribution: Kidneys (PC3 xenografts; [2]): 3.6 % I.D./g | Biodistribution: Blood (PC3 xenografts; 2 h p.i.): 0.22 ± 0.01 % I.D./g | Biodistribution: Bone (PC3 xenografts; 2 h p.i.): 0.54 ± 0.04 % I.D./g | Biodistribution: Intestine (PC3 xenografts; 2 h p.i.): 0.17 ± 0.05 % I.D./g | Biodistribution: Kidneys (PC3 xenografts; 2 h p.i.): 2.54 ± 0.71 % I.D./g | Biodistribution: Liver (PC3 xenografts; 2 h p.i.): 0.49 ± 0.15 % I.D./g | Biodistribution: Lung (PC3 xenografts; 2 h p.i.): 0.31 ± 0.04 % I.D./g | Biodistribution: Muscle (PC3 xenografts; 2 h p.i.): 0.15 ± 0.01 % I.D./g | Biodistribution: Pancreas (PC3 xenografts; 2 h p.i.): 0.27 ± 0.12 % I.D./g | Biodistribution: Salivary Gland (PC3 xenografts; 2 h p.i.): 0.17 ± 0.02 % I.D./g | Biodistribution: Spleen (PC3 xenografts; 2 h p.i.): 0.33 ± 0.16 % I.D./g | Biodistribution: Stomach (PC3 xenografts; 2 h p.i.): 0.23 ± 0.08 % I.D./g | Biodistribution: Tumour (PC3 xenografts; 2 h p.i.): 0.37 ± 0.17 % I.D./g | Biodistribution: Blood (PC3 xenografts; [3]): 0.22 % I.D./g | Biodistribution: Kidneys (PC3 xenografts; [3]): 2.5 % I.D./g | Biodistribution: Tumour (PC3 xenografts; [3]): 0.37 % I.D./g
Structure (SMILES): O=C([O-])CN1CCN(CC(=O)[O-])CCN(CC(=O)NCc2ccc(-c3nncnn3)cc2)CCN(CC(=O)[O-])CC1.[90Y+3] [[90Y]Y-DOTA-Tz]
Cerenkov imaging: tumor uptake (PC3 tumor; images at 15 min p.i.): some tumor uptake | Cerenkov imaging: activity localization (PC3 tumor; images at 1 h after the injection): majority of the activity localized in the kidneys

Source: PMC8225959, “Clickable Radiocomplexes With Trivalent Radiometals for Cancer Theranostics: In vitro and in vivo Studies” (Frontiers in Medicine, 2021)
